Test results: patent US20230255910A1, “USE OF A CINNAMEIN COMPOSITION FOR THE TREATMENT OF GLYCINE ENCEPHALOPATHY AND UREA CYCLE DISORDERS” (Rush University Medical Center, priority 2020, published 2023)

Columns and labels:
[1] = system: lenti-GLDC shRNA-insulted mice; experiment: Open field test of locomotor activities in lenti-GLDC shRNA-insulted mice; type: in vivo, C57/BL6 mice; details: 50 mg/kg body wt/d daily via gavage, after 10 d of treatment, FIG. 1A-D
Description: (§1) C57/BL6 mice (8-10 week old) received lentiviral GLDC shRNA (1×107 IFU/mouse in 100 μl HBSS) once via tail-vein injection. Therefore, control mice also received 100 μl HBSS via tail-vein. From 7 d after lenti-GLDC shRNA injection, mice were treated with cinnamein (50 mg/kg body wt/d) and cinnamic acid (50 mg/kg body wt/d) daily via gavage. After 10 d of treatment, locomotor activities were monitored by open field (FIG. 1A, heat map; FIG. 1B, distance traveled; FIG. 1C, velocity; FIG. 1D, center zone frequency). Results are mean+SEM of five mice per group. *p<0.05; **p<0.01; ***p<0.001.
C57/BL6 mice (8-10 week-old) received lentiviral GLDC shRNA (1×107 IFU/mouse in 100 μl Hank's Balanced Salt Solution or HBSS) once via tail-vein injection. The group of control mice received only 100 μl HBSS via tail-vein injection. Oral administration of cinnamein occurred from 7 d after lenti-GLDC shRNA injection. Mice were treated with 50 mg/kg body wt/d of cinnamein daily via gavage. Cinnamein (Sigma) was solubilized in 100 μl 0.5% methyl cellulose before gavage. […]
After 10 d of treatment with cinnamein and cinnamic acid, mice were monitored for locomotor activities by open field test. […] Each mouse was placed individually on the center of the arena and the performance was monitored by the live video tracking system.

[2] = system: lenti-GLDC shRNA-insulted mice; experiment: Barnes maze, spatial learning and memory in lenti-GLDC shRNA-insulted mice; type: in vivo, C57/BL6 mice; details: 50 mg/kg body wt/d daily via gavage, after 10 d of treatment; for latency in reaching the target hole: FIG. 2B; for errors in reaching the target hole: FIG. 2C
Description: as §1, with “spatial learning and memory was” for “locomotor activities were”, “Barnes maze (A,” for “open field (FIG. 1A,”, “B, latency; C, errors).” for “FIG. 1B, distance traveled; FIG. 1C, velocity; FIG. 1D, center zone frequency).”
(§2) C57/BL6 mice (8-10 week-old) received lentiviral GLDC shRNA (1×107 IFU/mouse in 100 μl Hank's Balanced Salt Solution or HBSS) once via tail-vein injection. The group of control mice received only 100 μl HBSS via tail-vein injection. Oral administration of cinnamein occurred from 7 d after lenti-GLDC shRNA injection. Mice were treated with 50 mg/kg body wt/d of cinnamein daily via gavage. Cinnamein (Sigma) was solubilized in 100 μl 0.5% methyl cellulose before gavage. Therefore, one group of lenti-GLDC shRNA-insulted mice were also treated with 100 μl 0.5% methyl cellulose as vehicle control. For comparison, one group of lenti-GLDC shRNA-insulted mice were also treated with 50 mg/kg body wt/d of cinnamic acid daily via gavage.
Next, mice were monitored for spatial learning and memory by Barnes maze. Here, mice were trained for two consecutive days followed by examination on day three. During training, the overnight food-deprived mouse was placed in the middle of the maze in a 10 cm high cylindrical start chamber. After 10 s, the start chamber was removed to allow the mouse to move around the maze to find out the color food chips in the baited tunnel.

[3] = system: lenti-GLDC shRNA-insulted mice; experiment: Level of glycine in serum and cortex of lenti-GLDC shRNA-insulted mice (fluorometric assay kit); type: in vivo, C57/BL6 mice; details: 50 mg/kg body wt/d daily via gavage, 14 d of treatment; for level of glycine in serum: FIG. 3A; for level of glycine in cortex: FIG. 3B
Description: C57/BL6 mice (8-10 week old) received lentiviral GLDC shRNA (1×107 IFU/mouse in 100 μl Hank's Balanced Salt Solution or HBSS) once via tail-vein injection. Therefore, control mice also received 100 μl HBSS via tail-vein. From 7 d after lenti-GLDC shRNA injection, mice were treated with cinnamein (50 mg/kg body wt/d) and cinnamic acid (50 mg/kg body wt/d) daily via gavage. After 14 d of treatment, the level of glycine was measured in serum (A) and cortex (B) by using a fluorometric assay kit (Biovision). Each mouse sample was run in triplicate. Results are mean+SEM of five mice per group. ***p<0.001.
as §2
(§3) On 14 d of treatment, mice were sacrificed, and level of glycine was measured in serum and brain.

[4] = Observation of side effects during drug treatment; type: in vivo, C57/BL6 mice; details: 50 mg/kg body wt/d daily via gavage, during drug treatment (14 d)
Description: as §2, §3

[5] = system: B6EiC3Sn a/A-Otc^spf-ash/J (Otc^spf-ash) mice; experiment: Barnes maze, cognitive functions in OTC knockout mice (animal model of urea cycle disorders); type: in vivo; details: 50 mg/kg body weight/d orally via gavage for 15 days, FIG. 4A-C
Description: Eight-week old B6EiC3Sn a/A-Otc^spf-ash/J (Otc^spf-ash) mice were treated with cinnamein (50 mg/kg body weight/d) and cinnamic acid (50 mg/kg body weight/d) orally via gavage for 15 days followed by monitoring cognitive functions by Barnes maze (FIG. 4A, representative track plots summarizing the overall activity of mice on the apparatus recorded with a Noldus camera and visualized by Ethovision XT software; FIG. 4B, errors; FIG. 4C, latency). Results are mean+SEM of three mice per group. ***p<0.001.
Cognitive deficit is common in individuals with inherited urea cycle disorders (UCDs). […] See for example Qureshi et al., “Ornithine Transcarbamylase Deficiency in Mutant Mice I. Studies on the Characterization of Enzyme Defect and Suitability as Animal Model of Human Disease,” (1979) Pediat. Res. 13: pp 807-811; Hodges et al., “The spf^ash mouse: A missense mutation in the ornithine transcarbamylase gene also causes aberrant mRNA splicing,” (1989) Proc. Natl. Acad. Sci. USA 86: pp. 4142-4146. OTC knockout B6EiC3Sn a/A-Otc^spf-ash/J (Otc^spf-ash) mice were obtained from the Jackson Lab. Cinnamein was purchased from Sigma. Cinnamic acid was bought from Spectrum Chemicals.

For `O=C(C=Cc1ccccc1)OCc1ccccc1` [cinnamein, 3-phenyl-2-propenoic acid phenylmethyl ester], the “locomotor activities (heat map, total distance travelled, velocity, center zone frequency)” value [1] was “improved locomotor activities”, the “latency in reaching the target hole” value [2] was “significantly reduced” and the “errors in reaching the target hole” value [2] was “significantly reduced”. The “level of glycine in serum” value [3] was “significantly inhibited”, the “level of glycine in cortex” value [3] was “significantly inhibited” and the “side effects including hair loss, weight loss, diarrhea, or untoward infection” value [4] was “No other side effects were observed”. The “cognitive functions (Barnes maze errors and latency)” value [5] was “recovers cognitive functions”.

With `O=C(O)C=Cc1ccccc1` [cinnamic acid] the “locomotor activities (heat map, total distance travelled, velocity, center zone frequency)” value [1] was “improved locomotor activities”, the “latency in reaching the target hole” value [2] was “significantly reduced” and the “errors in reaching the target hole” value [2] was “significantly reduced”. For the same compound, the “level of glycine in serum” value [3] was “significantly inhibited”, the “level of glycine in cortex” value [3] was “significantly inhibited” and the “side effects including hair loss, weight loss, diarrhea, or untoward infection” value [4] was “No other side effects were observed”. The “cognitive functions (Barnes maze errors and latency)” value [5] was “recovers cognitive functions”.
